Reference: PMC7725003, “Systematically Studying the Optimal Amino Acid Distribution Patterns of the Amphiphilic Structure by Using the Ultrashort Amphiphiles” (Frontiers in Microbiology, 2020)
Where no end group is shown, it is not given here.

Assays:
S. pullorum 7913 = format: cell-based, Salmonella pullorum; settings: 7913, 24 h
Procedure: (§1) The antimicrobial activities of the peptides were measured using a method adapted from the National Committee for Clinical Laboratory Standards (NCCLS) with some modifications ([Chou et al., 2016]). The specific procedure for these assays has been previously described. In brief, the bacterial cells were grown to a mid-logarithmic phase and diluted in MHB to an ultimate concentration of 0.5–1 × 10^6 CFU mL^–1. Subsequently, the peptides were consecutively diluted in a 0.2% BSA solution and then added to a bacterial solution in a 96-well plate at identical volumes. After incubation for 24 h at 37°C, the MICs were determined to be the lowest peptide concentration that inhibited 95% of the bacterial growth by monitoring the absorbance at 492 nm using a microplate reader. Subsequently, 50 μL of each incubation mixture was further transferred to agar plates and incubated overnight. The minimum bactericidal concentrations (MBCs) were determined as the lowest peptide concentration that killed greater than 99.9% of the bacterial cells. Every assay was reproduced more than 3 times.

Gram-positive bacteria = settings: for GM, Gram-positive bacteria: geometric mean of MICs (Table 3); for TI, Gram-positive bacteria: therapeutic index TI = MHC/GM MIC
Procedure: (§2) The antimicrobial activity of AMPs is the most decisive index for evaluating the clinical application of antimicrobial drugs.
as §1, with “The minimum bactericidal concentrations (MBCs) were determined as the lowest peptide concentration that killed greater than 99.9% of the bacterial cells.” left out

Gram-negative bacteria = settings: for GM, Gram-negative bacteria: geometric mean of MICs (Table 3); for TI, Gram-negative bacteria: therapeutic index TI = MHC/GM MIC
Procedure: as §2
as §1, with “The minimum bactericidal concentrations (MBCs) were determined as the lowest peptide concentration that killed greater than 99.9% of the bacterial cells.” left out

[1] = test system: all of the tested bacterial strains; experiment: Geometric mean of MICs, all tested bacterial strains; format: cell-based; settings: for GM, All: geometric mean of MICs across all tested strains; for TI, All: therapeutic index TI = MHC/GM MIC
Excerpt: The antimicrobial activity of AMPs is the most decisive index for evaluating the clinical application of antimicrobial drugs. Many antimicrobial agents inhibit bacterial growth rather than kill the bacteria quickly, and long-term infections are pathogens that are not completely killed, which results in bacterial severe drug resistance. […] The geometric mean (GM) values of the MICs/MBCs of the two series across all of the tested bacterial strains are represented in Table 3, which depicts the average bacteriostatic/bactericidal level of a peptide.
as §1

E. coli O78 = format: cell-based, Escherichia coli; settings: O78, 24 h
Procedure: as §1

E. coli 25922 = format: cell-based, Escherichia coli; settings: 25922, 24 h
Procedure: as §1

E. coli UB1005 = format: cell-based, Escherichia coli; settings: UB1005, 24 h
Procedure: as §1

B. subtilis 63501 = format: cell-based, Bacillus subtilis; settings: 63501, 24 h
Procedure: as §1

[2] = test system: Listeria monocytogenes CGMCC 1.1075; format: cell-based; settings: CGMCC 1.1075, 24 h
Procedure: as §1

E. faecalis 29212 = format: cell-based, Enterococcus faecalis; settings: 29212, 24 h
Procedure: as §1

S. aureus 29213 [3] = experiment: Salt sensitivity assay (MIC); format: cell-based, Staphylococcus aureus; settings: for MIC, FeCl3: 4 μM FeCl3; for MIC, NH4Cl: 6 μM NH4Cl; for MIC, ZnCl2: 8 μM ZnCl2; for MIC, MgCl2: 1 mM MgCl2; for MIC, CaCl2: 2 mM CaCl2; for MIC, KCl: 4.5 mM KCl; for MIC, NaCl: 150 mM NaCl; for MIC, Control: no added salt, three independent assays
Procedure: as §1
(§3) The salt sensitivities of the peptides were determined. E. coli ATCC 25922 and S. aureus ATCC 29213 were incubated in the presence of various ultimate concentrations of physiological salts (150 mM NaCl, 4.5 mM KCl, 6 μM NH4Cl, 8 μM ZnCl2, 1 mM MgCl2, 2mM CaCl2, and 4 μM FeCl3) according to our previous protocol ([Yang et al., 2019]). These tests were performed under the MICs, and three independent assays were performed.

S. epidermidis 12228 = format: cell-based, Staphylococcus epidermidis; settings: 12228, 24 h
Procedure: as §1

S. typhimurium 7731 = format: cell-based, Salmonella typhimurium; settings: 7731, 24 h
Procedure: as §1

S. typhimurium 14028 = format: cell-based, Salmonella typhimurium; settings: 14028, 24 h
Procedure: as §1

E. coli ATCC 25922 = experiment: Salt sensitivity assay (MIC); format: cell-based, Escherichia coli; settings: for MIC, FeCl3: 4 μM FeCl3; for MIC, NH4Cl: 6 μM NH4Cl; for MIC, ZnCl2: 8 μM ZnCl2; for MIC, MgCl2: 1 mM MgCl2; for MIC, CaCl2: 2 mM CaCl2; for MIC, KCl: 4.5 mM KCl; for MIC, NaCl: 150 mM NaCl; for MIC, Control: no added salt, three independent assays
Procedure: as §1, §3

MRSA 43300 = format: cell-based, methicillin-resistant S. aureus; settings: 43300, 24 h
Procedure: as §1

S. aureus 25923 = format: cell-based, Staphylococcus aureus; settings: 25923, 24 h
Procedure: as §1

S. aureus 29213 [4] = format: cell-based, Staphylococcus aureus; settings: 29213, 24 h
Procedure: as §1

P. aeruginosa 27853 = format: cell-based, Pseudomonas aeruginosa; settings: 27853, 24 h
Procedure: as §1

## RRWWWRWRW-NH2 [W8]
S. pullorum 7913
  MBC: 4 µM
  MIC: 2 µM
Gram-positive bacteria
  GM, Gram-positive bacteria: 2.00 µM
  TI, Gram-positive bacteria: 64.00
Gram-negative bacteria
  GM, Gram-negative bacteria: 3.43 µM
  TI, Gram-negative bacteria: 37.32
[1]
  GM, All: 2.71 µM
  TI, All: 47.23
E. coli O78
  MBC: 8 µM
  MIC: 4 µM
E. coli 25922
  MBC: 8 µM
  MIC: 4 µM
E. coli UB1005
  MBC: 8 µM
  MIC: 4 µM
B. subtilis 63501
  MBC: 2 µM
  MIC: 1 µM
[2]
  MBC: 4 µM
  MIC: 2 µM
E. faecalis 29212
  MBC: 8 µM
  MIC: 4 µM
S. aureus 29213 [3]
  MIC, FeCl3: 2 µM
  MIC, NH4Cl: 4 µM
  MIC, ZnCl2: 4 µM
  MIC, MgCl2: 4 µM
  MIC, CaCl2: 4 µM
  MIC, KCl: 1 µM
  MIC, NaCl: 2 µM
  MIC, Control: 2 µM
S. epidermidis 12228
  MBC: 4 µM
  MIC: 2 µM
S. typhimurium 7731
  MBC: 8 µM
  MIC: 4 µM
S. typhimurium 14028
  MBC: 8 µM
  MIC: 4 µM
E. coli ATCC 25922
  MIC, FeCl3: 2 µM
  MIC, NH4Cl: 4 µM
  MIC, ZnCl2: 4 µM
  MIC, MgCl2: 16 µM
  MIC, CaCl2: 8 µM
  MIC, KCl: 16 µM
  MIC, NaCl: 32 µM
  MIC, Control: 4 µM
MRSA 43300
  MBC: 4 µM
  MIC: 2 µM
S. aureus 25923
  MBC: 4 µM
  MIC: 2 µM
S. aureus 29213 [4]
  MBC: 4 µM
  MIC: 2 µM
P. aeruginosa 27853
  MBC: 8 µM
  MIC: 4 µM

## RRWWWWRRW-NH2 [W7]
S. pullorum 7913
  MBC: 8 µM
  MIC: 4 µM
Gram-positive bacteria
  GM, Gram-positive bacteria: 2.44 µM
  TI, Gram-positive bacteria: 104.92
Gram-negative bacteria
  GM, Gram-negative bacteria: 5.88 µM
  TI, Gram-negative bacteria: 43.54
[1]
  GM, All: 4.00 µM
  TI, All: 64.00
E. coli O78
  MBC: 16 µM
  MIC: 8 µM
E. coli 25922
  MBC: 8 µM
  MIC: 4 µM
E. coli UB1005
  MBC: 8 µM
  MIC: 4 µM
B. subtilis 63501
  MBC: 2 µM
  MIC: 1 µM
[2]
  MBC: 4 µM
  MIC: 2 µM
E. faecalis 29212
  MBC: 16 µM
  MIC: 8 µM
S. aureus 29213 [3]
  MIC, FeCl3: 8 µM
  MIC, NH4Cl: 4 µM
  MIC, ZnCl2: 4 µM
  MIC, MgCl2: 4 µM
  MIC, CaCl2: 4 µM
  MIC, KCl: 4 µM
  MIC, NaCl: 4 µM
  MIC, Control: 4 µM
S. epidermidis 12228
  MBC: 4 µM
  MIC: 2 µM
S. typhimurium 7731
  MBC: 32 µM
  MIC: 16 µM
S. typhimurium 14028
  MBC: 16 µM
  MIC: 8 µM
E. coli ATCC 25922
  MIC, FeCl3: 8 µM
  MIC, NH4Cl: 4 µM
  MIC, ZnCl2: 4 µM
  MIC, MgCl2: 4 µM
  MIC, CaCl2: 8 µM
  MIC, KCl: 8 µM
  MIC, NaCl: 8 µM
  MIC, Control: 4 µM
MRSA 43300
  MBC: 4 µM
  MIC: 2 µM
S. aureus 25923
  MBC: 4 µM
  MIC: 2 µM
S. aureus 29213 [4]
  MBC: 8 µM
  MIC: 4 µM
P. aeruginosa 27853
  MBC: 32 µM
  MIC: 4 µM

## RWRWRRWWW-NH2 [W9]
S. pullorum 7913
  MBC: 8 µM
  MIC: 4 µM
Gram-positive bacteria
  GM, Gram-positive bacteria: 2.44 µM
  TI, Gram-positive bacteria: 104.92
Gram-negative bacteria
  GM, Gram-negative bacteria: 4.67 µM
  TI, Gram-negative bacteria: 54.82
[1]
  GM, All: 3.51 µM
  TI, All: 72.93
E. coli O78
  MBC: 8 µM
  MIC: 4 µM
E. coli 25922
  MBC: 8 µM
  MIC: 4 µM
E. coli UB1005
  MBC: 8 µM
  MIC: 4 µM
B. subtilis 63501
  MBC: 4 µM
  MIC: 2 µM
[2]
  MBC: 8 µM
  MIC: 4 µM
E. faecalis 29212
  MBC: 8 µM
  MIC: 4 µM
S. aureus 29213 [3]
  MIC, FeCl3: 2 µM
  MIC, NH4Cl: 2 µM
  MIC, ZnCl2: 2 µM
  MIC, MgCl2: 2 µM
  MIC, CaCl2: 4 µM
  MIC, KCl: 2 µM
  MIC, NaCl: 2 µM
  MIC, Control: 2 µM
S. epidermidis 12228
  MBC: 4 µM
  MIC: 2 µM
S. typhimurium 7731
  MBC: 8 µM
  MIC: 4 µM
S. typhimurium 14028
  MBC: 16 µM
  MIC: 8 µM
E. coli ATCC 25922
  MIC, FeCl3: 4 µM
  MIC, NH4Cl: 4 µM
  MIC, ZnCl2: 8 µM
  MIC, MgCl2: 8 µM
  MIC, CaCl2: 16 µM
  MIC, KCl: 8 µM
  MIC, NaCl: 16 µM
  MIC, Control: 4 µM
MRSA 43300
  MBC: 4 µM
  MIC: 2 µM
S. aureus 25923
  MBC: 4 µM
  MIC: 2 µM
S. aureus 29213 [4]
  MBC: 4 µM
  MIC: 2 µM
P. aeruginosa 27853
  MBC: 16 µM
  MIC: 8 µM

## RWWWWRRWR-NH2 [W10]
S. pullorum 7913
  MBC: 32 µM
  MIC: 16 µM
Gram-positive bacteria
  GM, Gram-positive bacteria: 2.21 µM
  TI, Gram-positive bacteria: 115.84
Gram-negative bacteria
  GM, Gram-negative bacteria: 5.44 µM
  TI, Gram-negative bacteria: 47.06
[1]
  GM, All: 3.67 µM
  TI, All: 69.75
E. coli O78
  MBC: 8 µM
  MIC: 4 µM
E. coli 25922
  MBC: 16 µM
  MIC: 8 µM
E. coli UB1005
  MBC: 16 µM
  MIC: 8 µM
B. subtilis 63501
  MBC: 4 µM
  MIC: 2 µM
[2]
  MBC: 4 µM
  MIC: 2 µM
E. faecalis 29212
  MBC: 8 µM
  MIC: 4 µM
S. aureus 29213 [3]
  MIC, FeCl3: 1 µM
  MIC, NH4Cl: 1 µM
  MIC, ZnCl2: 1 µM
  MIC, MgCl2: 2 µM
  MIC, CaCl2: 2 µM
  MIC, KCl: 2 µM
  MIC, NaCl: 2 µM
  MIC, Control: 2 µM
S. epidermidis 12228
  MBC: 4 µM
  MIC: 2 µM
S. typhimurium 7731
  MBC: 8 µM
  MIC: 4 µM
S. typhimurium 14028
  MBC: 16 µM
  MIC: 8 µM
E. coli ATCC 25922
  MIC, FeCl3: 4 µM
  MIC, NH4Cl: 8 µM
  MIC, ZnCl2: 4 µM
  MIC, MgCl2: 16 µM
  MIC, CaCl2: 16 µM
  MIC, KCl: 16 µM
  MIC, NaCl: 32 µM
  MIC, Control: 8 µM
MRSA 43300
  MBC: 4 µM
  MIC: 2 µM
S. aureus 25923
  MBC: 4 µM
  MIC: 2 µM
S. aureus 29213 [4]
  MBC: 4 µM
  MIC: 2 µM
P. aeruginosa 27853
  MBC: 8 µM
  MIC: 4 µM
